Test systems include DLD-1; RXF 631; M19-MEL; LXFL 529; SNB-78; XF498; HOP-18.
Common to all, as to assay: growth of human tumour cells (NCI), 48 h

SMILES strings stand for the structures.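 Interpolation was linear, between the two tested concentrations surrounding the appropriate level; five concentrations were tested over 48 hours in 96-well plates. GI50 marks 50% less growth.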 Calls of active or inactive are those of the source. Cut-off read from the data, not from the text of the source: active = GI50 up to about 1.1 µM and inactive = higher.

`CC(=O)NNc1nc(C)c(C(=O)/C=C/c2ccc(/C=C/C(=O)c3sc(NNC(C)=O)nc3C)cc2)s1`: the GI50 in the experiment with DLD-1, in the experiment on RXF 631, in the experiment on M19-MEL, in the experiment on LXFL 529, with SNB-78 and with XF498 was > 100 µM (inactive) in each case.

In the case of `CCCCCCCCCCCC(=O)OCCOCCOCCOCCOCCOCc1ccccc1`, the GI50 in the experiment on DLD-1, in the experiment on M19-MEL, in the experiment on LXFL 529, in the experiment on SNB-78 and with HOP-18 was > 100 µM (inactive) in each case.

Consider `CCOC(=O)COc1ccc(OCC(=O)OCC)c2c1C(=O)CCCC2=O`, for which the GI50 with DLD-1, in the experiment on M19-MEL, in the experiment with LXFL 529, in the experiment on XF498 and with HOP-18 was > 100 µM (inactive) throughout.

`COC(=O)C(Br)C1CCc2ccccc21` (centres undefined): the GI50 was > 100 µM (inactive) in the experiment on DLD-1; > 100 µM (inactive) in the experiment with RXF 631; > 100 µM (inactive) with M19-MEL; > 100 µM (inactive) in the experiment with LXFL 529; 65.3 µM (inactive) with HOP-18.

With `CC(=O)C1=NN(c2ccccc2)C2(S1)SC(c1ccccc1)(c1ccccc1)c1ccccc12` (centres undefined), the GI50 in the experiment on DLD-1 was 61.4 µM (inactive); in the experiment with M19-MEL, 47.8 µM (inactive); with LXFL 529 it was 15.2 µM (inactive); in the experiment with SNB-78 it was 30.8 µM (inactive); in the experiment on HOP-18, > 100 µM (inactive).

In the case of `N#CCCN(c1ccc(/C=N/c2ccc(C(=O)O)cc2)cc1)S(=O)(=O)c1ccccc1`, the GI50 in the experiment on DLD-1, with M19-MEL, in the experiment on LXFL 529, in the experiment on SNB-78, with XF498 and in the experiment on HOP-18 was > 100 µM (inactive) each time.

Consider `NC(=O)CCC(NC(=O)C(F)(F)F)C(=O)O` (centres undefined), for which the GI50 in the experiment with DLD-1, in the experiment on M19-MEL, in the experiment on LXFL 529, with SNB-78, with XF498 and in the experiment with HOP-18 was > 100 µM (inactive) throughout.

As to `Cc1nnc2c3nnc(C)n3c3ccccc3n12`, the GI50 with DLD-1, in the experiment on LXFL 529, with SNB-78 and in the experiment with XF498 was > 100 µM (inactive) each time.

Take `COc1c(C)n(CCO)ccc1=O`: the GI50 in the experiment with DLD-1, in the experiment on RXF 631, with M19-MEL, with LXFL 529, in the experiment on SNB-78 and with XF498 was > 100 µM (inactive) in each case.

Take `COC(=O)CC(NC(=O)OCc1ccccc1)C(C(=O)OCc1ccccc1)C(C)(OC)OC` (centres undefined): the GI50 was 20.9 µM (inactive) with DLD-1, 27.7 µM (inactive) with M19-MEL, 5.69 µM (inactive) with LXFL 529 and 14.1 µM (inactive) in the experiment on XF498.

Regarding `O=C1C=C(Nc2ccc(Cl)cc2Cl)c2ccccc2C1=O`, the GI50 was 44.5 µM (inactive) in the experiment with DLD-1; 34.5 µM (inactive) in the experiment with RXF 631; 13.5 µM (inactive) in the experiment on M19-MEL; 27.2 µM (inactive) with LXFL 529; 44.1 µM (inactive) in the experiment on SNB-78.

Regarding `Cc1ccc(NC(=O)C(=O)Cc2cccc[n+]2[O-])cc1C`, the GI50 in the experiment on DLD-1, in the experiment with M19-MEL, in the experiment on LXFL 529, with SNB-78, in the experiment with XF498 and with HOP-18 was > 100 µM (inactive) throughout.

`CCOC1c2cc(C(C)C)c(O)c(O)c2[C@@]23CCCC(C)(C)C2C1OC3=O` (some centres undefined): the GI50 was 61.7 µM (inactive) in the experiment with DLD-1, > 100 µM (inactive) in the experiment on M19-MEL, > 100 µM (inactive) in the experiment on LXFL 529 and > 100 µM (inactive) with SNB-78.

As for `COC(=O)C1CCc2nnc(-c3cccnc3)n21` (centres undefined), the GI50 with DLD-1, with RXF 631, in the experiment on M19-MEL, in the experiment with LXFL 529, with SNB-78 and in the experiment with HOP-18 was > 100 µM (inactive) each time.

In the case of `Brc1ccc(C[P+]2(c3ccccc3)CCCCC2)cc1.[O-][Cl+3]([O-])([O-])[O-]`, the GI50 in the experiment on DLD-1 is > 100 µM (inactive); with M19-MEL it was 25.4 µM (inactive); in the experiment with LXFL 529 it was 25.1 µM (inactive); with SNB-78, 25.2 µM (inactive); in the experiment on XF498 it was < 0.01 µM (active); in the experiment with HOP-18, > 100 µM (inactive).

Consider `CC/C=C\C/C=C\C1CC(=O)NCCCNCCCCN1` (centres undefined), for which the GI50 with DLD-1, in the experiment with M19-MEL, in the experiment with LXFL 529 and in the experiment on SNB-78 was > 100 µM (inactive) throughout.

As to `CCOC(=O)/N=c1/nc(N(C)C)ss1`, the GI50 with DLD-1, with RXF 631, with LXFL 529, in the experiment with SNB-78, in the experiment with XF498 and in the experiment on HOP-18 was > 100 µM (inactive) throughout.

Take `CC(=O)Nc1ccc(S(=O)(=O)N/N=C(\C)CN2C(=O)c3ccccc3C2=O)cc1`: the GI50 with DLD-1, with M19-MEL, in the experiment with LXFL 529, with SNB-78 and in the experiment on HOP-18 was > 100 µM (inactive) throughout.

For the molecule `Clc1ccc(OCc2nnc3n2N=C(c2ccccc2)CS3)c(Cl)c1`, the GI50 was 7.26 µM (inactive) with DLD-1; > 100 µM (inactive) with M19-MEL; 5.6 µM (inactive) in the experiment on LXFL 529; 9.42 µM (inactive) in the experiment on SNB-78; > 100 µM (inactive) in the experiment on XF498.

Consider `CCCP1(=O)C=C(C)C(=C(Cl)Cl)C(C)=C1` (centres undefined), for which the GI50 with DLD-1 was 67.3 µM (inactive); in the experiment on M19-MEL, 47.9 µM (inactive); with LXFL 529, 30.1 µM (inactive); in the experiment with SNB-78, 57.3 µM (inactive); with HOP-18, > 100 µM (inactive).

`C=CCc1ccc(Oc2cc(CC=C)c3c(c2O)O[C@@H](CO)[C@H]3c2ccc(O)c(-c3cc(CC=C)ccc3O)c2)cc1`: the GI50 in the experiment with DLD-1 is 52.1 µM (inactive); in the experiment with M19-MEL, 42.2 µM (inactive); with LXFL 529, 30.8 µM (inactive); in the experiment on SNB-78, 52 µM (inactive); in the experiment with HOP-18, > 100 µM (inactive).

On to `CCCCCCCCCCCCCC(=O)OCC(C[As](=O)(O)O)OC(=O)CCCCCCCCCCCCC` (centres undefined), for which the GI50 with DLD-1, in the experiment with RXF 631, with LXFL 529, with SNB-78, in the experiment on XF498 and in the experiment with HOP-18 was > 100 µM (inactive) in each case.

Take `COc1ccc(N2C(=O)C3c4[nH]c5ccccc5c4C4CC(C)(C)CC(C)(C)C4C3C2=O)cc1` (centres undefined): the GI50 was 27 µM (inactive) in the experiment with DLD-1; 15.1 µM (inactive) in the experiment with M19-MEL; 13.3 µM (inactive) in the experiment with LXFL 529; 21.4 µM (inactive) with SNB-78; 17.6 µM (inactive) in the experiment with XF498; 16.7 µM (inactive) in the experiment with HOP-18.

As for `c1cnc2c(c1)-n1cccc1C1(CCSCC1)NN2`, the GI50 was 48.5 µM (inactive) in the experiment on M19-MEL, > 100 µM (inactive) in the experiment with XF498 and 26 µM (inactive) in the experiment on HOP-18.

Values taken from ChEMBL document CHEMBL1201862, “PubChem BioAssay data set” (2004).
